Experiment: Roller compaction processability observation and in-process data
Conditions: unformulated
Excerpt: Formulations were manufactured at 100 g scale by roller compaction using the compositions as described in Table 17. The formulations were designed to evaluate the effect of formulation variables including drug loading, ratios of diluents and levels of other excipients on the processability, as shown in Table 17.
In the tables above, BD refers to Bulk Density, DT refers to Disintegration time, HR refers to Hausner ratio and TD refers to tapped density. Disintegration time is for a 0.5-inch ribbon. The plus signs in the table refer to the following observed characteristics: “+” is soft, “++” is medium hard, “+++” is hard, and “++++” is very hard.
To improve the flow properties of the sepiapterin composition of the invention, a dry granulation approach was selected. The manufacturing process included preblending, roller compaction followed by milling, final blending, and sachet filling. The batch analyses data from the selected manufacturing process yielded acceptable drug product within the specification limit. […]

C[C@H](O)C(=O)C1=Nc2c(nc(N)[nH]c2=O)NC1 [sepiapterin]
bulk density: low bulk density
flow characteristics: poor flow characteristics
